According to patent publication US4452778A, “Synergistic antibacterial compositions and method of treatment of infections caused by multiple antibiotic-resistant organisms” (Eli Lilly and Company, priority 1981, dated 1984):
Where two headings read alike, the source gives them in different places.

Test system: Pseudomonas aeruginosa
Experiment: Checkerboard broth dilution synergy study (mic)
Type: cell-based
Conditions: for MIC: Pseudomonas aeruginosa, read-out: mic, drug alone

## COC1(NC(=O)C(C(=O)O)c2ccc(O)cc2)C(=O)N2C(C(=O)O)=C(CSc3nnnn3C)COC21 (stereo not shown) [1-oxa compound I, moxalactam]
Table II, strain 84
  MIC: 16 µg/mL
  mic of each drug in combination I + P: 4 µg/mL
  mic of each drug in combination I + T: 2 µg/mL
Table II, strain 366
  MIC: 16 µg/mL
  mic of each drug in combination I + P: 8 µg/mL
  mic of each drug in combination I + T: 0.5 µg/mL
Table II, strain 424
  MIC: 8 µg/mL
  mic of each drug in combination I + P: 2 µg/mL
  mic of each drug in combination I + T: 2 µg/mL
Table II, strain 447
  MIC: 32 µg/mL
  mic of each drug in combination I + P: 4 µg/mL
  mic of each drug in combination I + T: < 0.5 µg/mL
Table II, strain 1484
  MIC: 64 µg/mL
  mic of each drug in combination I + P: 16 µg/mL
  mic of each drug in combination I + T: 4 µg/mL
Table II, strain Davis
  MIC: > 64 µg/mL
  mic of each drug in combination I + P: 8 µg/mL
  mic of each drug in combination I + T: 2 µg/mL
Table III, isolate 316-2
  MIC: 8 µg/mL
  mic of each drug in combination I + A: 4 µg/mL
Table III, isolate 362
  MIC: 32 µg/mL
  mic of each drug in combination I + A: 4 µg/mL
Table III, isolate 363
  MIC: 32 µg/mL
  mic of each drug in combination I + A: 1 µg/mL
Table III, isolate 610
  MIC: > 64 µg/mL
  mic of each drug in combination I + A: 0.6 µg/mL
Table III, isolate Brownlee
  MIC: 32 µg/mL
  mic of each drug in combination I + A: 1 µg/mL
